Reference: patent US11180509B2, “Thiazolidone spiro pyrimidine trione compound, preparation method therefor and uses thereof” (SHANGHAI INSTITUTE OF MATERIA MEDICA, CHINESE ACADEMY OF …, priority 2017, dated 2021)
Converted amounts (≈) assume the structure as drawn. Where two headings read alike, the source gives them in different places.

What was measured:
[1] = tested on: penicillin-resistant Streptococcus pneumoniae or PRSP; assay: In vitro antibacterial activity, MIC by micro broth dilution; assay type: cell-based; conditions: read-out: MIC PRSP
Excerpt: (§1) The following strains isolated in clinic were used in antibacterial activity screening in vitro: five strains of methicillin-resistant Staphylococcus aureus or MRSA, five strains of methicillin-sensitive Staphylococcus aureus or MSSA, five strains of methicillin-resistant Staphylococcus epidermidis or MRSE, five strains of methicillin-sensitive Staphylococcus epidermidis or MSSE, three strains of penicillin-resistant Streptococcus pneumoniae or PRSP, and three strains of Streptococcus pyogenes.
(§2) The above strains were clinically isolated pathogenic bacteria collected in Sichuan and Beijing in December 2015. They were identified by the collection unit via a VITEK-60 automatic microbiological identification instrument, and then re-identified by conventional methods in the laboratory. Before the experiment, each strain was purified by a single colony on an agar plate, and the cells freshly cultured at 37° C. overnight were appropriately diluted for the experiment. Quality control strain was Staphylococcus aureus ATCC25923 purchased from the Clinical Testing Center of the Ministry of Health of the People's Republic of China.
(§3) Medium: MH (Mueller-Hinton, hydrolyzed casein) broth (OXOID);
(§4) Culture condition: Incubate at 35-37° C. for 16-18 h.
(§5) The MIC value of each test sample for the tested strain was determined by micro broth dilution method recommended by Performance Standards for Antimicrobial Susceptibility Testing (Twenty-Third Informational Supplement; M02-A11, M07-A9 and M11-A8, 2013) of American Clinical and Laboratory Standards Institute (CLSI).
(§6) After diluting each test sample to different concentrations in MH broth, 100 μl of each sample solution at different concentrations was pipetted into a sterilized 96-well polystyrene plate. In the first to twelfth wells, the drug solution was added, and the final drug concentrations in each well were 64, 32, 16, 8, 4, 2, 1, 0.5, 0.25, 0.125, 0.06, and 0.03 mg/L. The well without drug and without bacteria was set as blank control well. The well with bacteria and without drug was set as a bacterial growth control well.
(§7) The test bacterial solution was adjusted with physiological saline to a bacterial suspension equivalent to 0.5 Maisson turbidity standard, and diluted 1:100 with MH broth. The drug solution was added so that the final concentration of the bacterial solution was about 10^4 CFU/ml; then 100 μl of bacterial solution was pipetted into the above wells (the total volume in each well was 200 μl). The plate was sealed and placed in a 35-37° C. incubator for 18-20 h, and then the results were determined. […] When Streptococcus pneumoniae was tested, sterile defibrillated sheep blood was added into the Colombian broth culture medium at a final concentration of 5% and cultivation was conducted in a 5% CO2 and 35-37° C. incubator for 18-20 hours.

[2] = tested on: methicillin-sensitive Staphylococcus epidermidis or MSSE; assay: as above; assay type: cell-based; conditions: read-out: MIC MSSE
Excerpt: as §1, §2, §3, §4, §5, §6, §7

[3] = tested on: methicillin-resistant Staphylococcus epidermidis or MRSE; assay: as above; assay type: cell-based; conditions: read-out: MIC MRSE
Excerpt: as §1, §2, §3, §4, §5, §6, §7

[4] = tested on: methicillin-sensitive Staphylococcus aureus or MSSA; assay: as above; assay type: cell-based; conditions: read-out: MIC MSSA
Excerpt: as §1, §2, §3, §4, §5, §6, §7

Streptococcus pyogenes = assay: as above; assay type: cell-based; conditions: read-out: MIC Spy
Excerpt: as §1, §2, §3, §4, §5, §6, §7

[5] = tested on: methicillin-resistant Staphylococcus aureus or MRSA; assay: as above; assay type: cell-based; conditions: read-out: MIC MRSA
Excerpt: as §1, §2, §3, §4, §5, §6, §7

[6] = In vivo pharmacokinetics test in mice (oral); design: species or system CD-1 mice; conditions: PO 10.0 mg/kg
Method: Healthy female CD-1 mice were randomly divided into five groups and each group comprised three mice. The tested compound was administered orally.
0.030 mL of blood was taken from the orbit of each animal each time and anticoagulated with EDTAK2. The collection time was as follows. PO group: 15 m, 30 mi, 1 h, 2 h, 4 h, 6 h, 8 h, and 24 h after administration of the test compound. The collected blood samples were placed on ice and centrifuged within 30 minutes to separate the plasma (centrifugation conditions: 5000 rpm, 10 minutes, room temperature). The samples were stored at −80° C. before analysis.

[7] = tested on: S. aureus MRSA15-3 infected mice; assay: In vivo protection test, systemic infection model (ED50); design: species or system Kunming mice; conditions: Staphylococcus aureus
[8] = tested on: Staphylococcus aureus MRSA15-3; assay: In vitro antibacterial activity against the in vivo test strain (MIC); assay type: cell-based; conditions: MRSA153
Method: as §5, §6
The test bacterial solution was adjusted with physiological saline to a bacterial suspension equivalent to 0.5 Maisson turbidity standard, and diluted 1:100 with MH broth. The drug solution was added so that the final concentration of the bacterial solution was about 10^4 CFU/ml; then 100 μl of bacterial solution was pipetted into the above wells (the total volume in each well was 200 μl). The plate was sealed and placed in a 35-37° C. incubator for 18-20 h, and then the results were determined. […]

[9] = tested on: MRSA, MSSA, MRSE, MSSE, PRSP, and Spy; assay: In vitro antibacterial activity over the whole strain panel, compared with AZD0914; assay type: cell-based; conditions: against MRSA
Excerpt: as §1, §2, §5, §6, §7

[10] = In vivo pharmacokinetic test in rats (PO and IV); conditions: SD rats
Method: Nine SD rats were randomly divided into three groups and each group comprised three […].
0.100 mL of blood was taken from the orbit of each animal each time and anticoagulated with EDTAK2. The collection time was as follows. (1) PO group (10.0 mg/kg): 15 min, 30 min, 1 h, 2 h, 4 h, 6 h, 8 h, 24 h after administration of the test compound; PO group (100 mg/kg): 15 min, 30 min 1 h, 2 h, 4 h, 6 h, 8 h, 10 h, 24 h, 36 h, 48 h; (2) IV group: 5 min, 15 min, 30 min, 1 h, 2 h, 4 h, 6 h, 8 h, 24 h after administration of the test compound. The collected blood samples were placed on ice and centrifuged within 30 minutes to separate the plasma (centrifugation conditions: 5000 rpm, 10 minutes, 4° C.). The samples were stored at −80° C. before analysis.

[11] = female, CD-1, mouse, plasma, read-out: Cmax
[12] = female, CD-1, mouse, plasma, read-out: MRT
[13] = female, CD-1, mouse, plasma, read-out: Tmax
[14] = po, read-out: ED50 95% confidence limit

C[C@@H]1CN2c3c(cc4c(N5C(=O)OC[C@@H]5C)noc4c3F)CC3(C(=O)NC(=O)NC3=O)[C@H]2[C@H](C)O1 [AZD0914, reference compound]
MIC [1]: 0.25 to 1 µg/mL (≈ 0.513 to 2.05 µM)
MIC [2]: 0.06 to 0.25 µg/mL (≈ 0.123 to 0.513 µM)
MIC [3]: 0.06 to 0.25 µg/mL (≈ 0.123 to 0.513 µM)
MIC [4]: 0.125 to 0.25 µg/mL (≈ 0.256 to 0.513 µM)
MIC (Streptococcus pyogenes): 0.25 to 0.5 µg/mL (≈ 0.513 to 1.03 µM)
MIC [5]: 0.06 to 1 µg/mL (≈ 0.123 to 2.05 µM)
AUC(0-t) ([6]; female, CD-1, mouse, plasma): 748 ± 215 ng·h/mL
half-life ([6]; female, CD-1, mouse, plasma): 3.41 ± 0.944 h
Cmax [6, 11]: 183 ± 134 ng/mL
MRT [6, 12]: 7.06 ± 2.92 h
Tmax [6, 13]: 0.583 ± 0.382 h
ED50 [7]: 11.5 mg/kg
ED50 [7, 14]: 7.28 to 25.8 mg/kg
MIC [8]: 0.125 µg/mL (≈ 0.256 µM)

C[C@@H]1CN2c3c(cc4c(N5CCSC5=O)noc4c3F)CC3(C(=O)NC(=O)NC3=O)[C@H]2[C@H](C)O1 [Compound 1, (2R,4S,4aS)-11-fluoro-2,4-dimethyl-8-(2-oxothiazolin-3-yl)-1,2,4,4a-tetrahydro-2′H,6H-spiro[isoxazole[4,5-g][1,4]oxazine[4,3-a]quinoline-5,5′-pyrimidine]-2′,4′,6′(1′H,3′H)-trione]
MIC [1]: < 0.03 µg/mL
MIC [2]: < 0.03 µg/mL
MIC [3]: < 0.03 µg/mL
MIC [4]: < 0.03 µg/mL
MIC (Streptococcus pyogenes): < 0.03 µg/mL
MIC [5]: 0.03 to 0.06 µg/mL (≈ 0.0613 to 0.123 µM)
AUC0→t relative to AZD0914 ([6]; multiple of the AZD0914 value): ~10 times)
Cmax relative to AZD0914 ([6]; multiple of the AZD0914 value): ~8 times)
AUC0→t ([6]; plasma): 7334 ± 943 ng·h/mL
Cmax ([6]; plasma): 1548 ± 52 ng/mL
MRT ([6]; plasma): 3.70 ± 0.95 h
Tmax ([6]; plasma): 1.33 ± 0.577 h
t1/2 ([6]; plasma): 2.90 ± 1.72 h
melting point: 225 to 226 °C
in vitro antibacterial activity relative to AZD0914 [9]: about 8 times

C[C@@H]1CN2c3c(cc4c(N5C[C@H](C)SC5=O)noc4c3F)CC3(C(=O)NC(=O)NC3=O)[C@H]2[C@H](C)O1 [Compound 2, (2R,4S,4aS)-11-fluoro-2,4-dimethyl-8-((S)-5-methyl-2-oxothiazolin-3-yl)-1,2,4,4a-tetrahydro-2′H,6H-spiro[isoxazole[4,5-g][1,4]oxazine[4,3-a]quinoline-5,5′-pyrimidine]-2′,4′,6′(1′H,3′H)-trione]
MIC [1]: < 0.03 µg/mL
MIC [2]: < 0.03 µg/mL
MIC [3]: < 0.03 µg/mL
MIC [4]: 0.03 to 0.06 µg/mL (≈ 0.0596 to 0.119 µM)
MIC (Streptococcus pyogenes): < 0.03 µg/mL
MIC [5]: 0.03 to 0.25 µg/mL (≈ 0.0596 to 0.497 µM)
AUC0-t (IV) ([10]; IV 10 mg/kg): 89577 ± 9072 ng·h/mL
Cl (IV) ([10]; IV 10 mg/kg): 1.82 ± 0.214 mL/min/kg
T1/2 (IV) ([10]; IV 10 mg/kg): 4.93 ± 0.844 h
Vdss (IV) ([10]; IV 10 mg/kg): 0.675 ± 0.0578 L/kg
% F ([10]; PO 10 mg/kg): 52.0 ± 8.41%
AUC0-t (PO) ([10]; PO 10 mg/kg): 46598 ± 7538 ng·h/mL
Cmax (PO) ([10]; PO 10 mg/kg): 4430 ± 1250 ng/mL
T1/2 (PO) ([10]; PO 10 mg/kg): 4.38 ± 1.21 h
Cmax (PO) ([10]; PO 100 mg/kg): 32069 ± 7934 ng/mL
MRT ([10]; rat, plasma, IV 10 mg/kg, read-out: MRT (IV)): 6.22 ± 0.601 h
Tmax ([10]; rat, plasma, PO 10 mg/kg): 5.33 ± 1.15 h
MRT ([10]; rat, plasma, PO 10 mg/kg, read-out: MRT (PO)): 7.54 ± 0.773 h
AUC(0-t) ([10]; rat, plasma, PO 100 mg/kg): 509000 ± 65900 ng·h/mL
Tmax ([10]; rat, plasma, PO 100 mg/kg): 5.33 ± 1.15 h
bioavailability ([10]; rat, plasma, PO 100 mg/kg): 55.1 ± 7.1%
MRT ([10]; rat, plasma, PO 100 mg/kg, read-out: MRT (PO)): 11.1 ± 2.11 h
half-life ([10]; rat, plasma, PO 100 mg/kg, read-out: T1/2 (PO) (converted)): 4.19 ± 0.23 h
AUC(0-t) ([6]; female, CD-1, mouse, plasma): 24200 ± 5640 ng·h/mL
half-life ([6]; female, CD-1, mouse, plasma): 6.2 ± 1.4 h
Cmax [6, 11]: 2580 ± 713 ng/mL
MRT [6, 12]: 8.94 ± 2.15 h
Tmax [6, 13]: 2.67 ± 1.15 h
ED50 [7]: 2.54 mg/kg
ED50 [7, 14]: 0.11 to 3.71 mg/kg
MIC [8]: < 0.03 µg/mL
